For the test, the target named is SIK2 (Homo sapiens (Human), UniProt Q9H0K1). Nature of the test: SIK2 Enzymatic Assay Version 2 (High ATP). It counts as biochemical. As to conditions: 3 mM ATP and 200 μM HDAC5tide final, ADP-Glo Max luminescence. In a few lines:
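Run at room temperature; SIK2 enzyme at 6 nM (2× final) preincubated with compound 30 min before reaction. ADP formation detected by ADP-Glo Max (2 h reagent, 1 h detection) with luminescence read-out.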
In general terms: In ADP-Glo the light output rises with the ADP produced.
Chain of SIK2 (Q9H0K1 whole entry, species assumed): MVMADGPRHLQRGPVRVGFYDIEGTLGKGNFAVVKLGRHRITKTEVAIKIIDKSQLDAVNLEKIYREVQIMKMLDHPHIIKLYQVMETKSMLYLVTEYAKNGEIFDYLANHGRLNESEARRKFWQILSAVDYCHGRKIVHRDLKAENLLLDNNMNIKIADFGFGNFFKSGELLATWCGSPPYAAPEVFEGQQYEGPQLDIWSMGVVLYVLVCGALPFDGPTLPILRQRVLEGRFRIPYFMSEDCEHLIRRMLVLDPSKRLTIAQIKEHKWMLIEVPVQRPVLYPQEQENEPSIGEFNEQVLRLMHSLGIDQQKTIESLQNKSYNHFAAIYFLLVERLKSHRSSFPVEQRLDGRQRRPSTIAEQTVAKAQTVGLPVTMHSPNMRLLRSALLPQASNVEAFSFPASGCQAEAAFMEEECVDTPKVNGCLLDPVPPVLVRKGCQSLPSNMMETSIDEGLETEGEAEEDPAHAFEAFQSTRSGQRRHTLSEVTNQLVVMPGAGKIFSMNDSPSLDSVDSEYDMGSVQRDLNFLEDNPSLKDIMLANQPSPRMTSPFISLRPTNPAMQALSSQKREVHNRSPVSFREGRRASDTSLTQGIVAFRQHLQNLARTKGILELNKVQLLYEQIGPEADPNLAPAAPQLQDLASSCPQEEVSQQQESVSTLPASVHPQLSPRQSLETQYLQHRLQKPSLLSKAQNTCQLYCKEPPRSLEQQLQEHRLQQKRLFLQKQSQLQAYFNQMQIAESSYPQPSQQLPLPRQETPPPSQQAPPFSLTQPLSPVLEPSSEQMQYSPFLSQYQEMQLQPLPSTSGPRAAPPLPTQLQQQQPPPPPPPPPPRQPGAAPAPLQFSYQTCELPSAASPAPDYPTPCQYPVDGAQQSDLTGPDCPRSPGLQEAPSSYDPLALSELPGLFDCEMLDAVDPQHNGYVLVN
`CCN1CC[C@@H]1COc1cnn(C)c1-c1ccn2nc(Nc3cc(C)c(=O)n(C)n3)cc2c1` [Example 178, 6-[[5-[4-[[(2R)-1-ethylazetidin-2-yl]methoxy]-2-methyl-pyrazol-3-yl]pyrazolo[1,5-a]pyridin-2-yl]amino]-2,4-dimethyl-pyridazin-3-one]: the IC50 (usually the concentration needed to halve the response being measured) is less than 0.847 nM.
The figure for `Cn1ncc(OC[C@H]2CCN2C2CC2)c1-c1ccn2nc(NC(=O)C3CC3)cc2c1` [Example 347, N-[5-[4-[[(2R)-1-cyclopropylazetidin-2-yl]methoxy]-2-methyl-pyrazol-3-yl]pyrazolo[1,5-a]pyridin-2-yl]cyclopropanecarboxamide] is 68 nM; for `Cc1cc(Nc2cc3cc(-c4c(OC[C@H]5CCN5C)cnn4C(F)F)ccn3n2)nc(C)n1` [Example 140, 5-[2-(difluoromethyl)-4-[[(2R)-1-methylazetidin-2-yl]methoxy]pyrazol-3-yl]-N-(2,6-dimethylpyrimidin-4-yl)pyrazolo[1,5-a]pyridin-2-amine] it is 1.2 nM; for `Cc1onc(O[C@@H]2CCNC[C@@H]2F)c1-c1ccn2nc(NC(=O)C3CC3)cc2c1` (single isomer, unassigned) [Example 215, N-(5-(3-(((3*S,4*R)-3-fluoropiperidin-4-yl)oxy)-5-methylisoxazol-4-yl)pyrazolo[1,5-a]pyridin-2-yl)cyclopropanecarboxamide] it is 27.5 nM.
In the case of `Cc1cc(Nc2cc3cc(-c4c(OC[C@](C)(O)C5CC5)cnn4C)ccn3n2)nc(C)n1` (single isomer, unassigned) [Example 304, (*S)-2-cyclopropyl-1-[5-[2-[(2,6-dimethylpyrimidin-4-yl)amino]pyrazolo[1,5-a]pyridin-5-yl]-1-methyl-pyrazol-4-yl]oxy-propan-2-ol], the half-inhibitory concentration (IC50) was determined as 45.7 nM.
For `CN1CC2(CCOCC2)[C@@H]1COc1cnn(C)c1-c1ccn2nc(NC(=O)C3CC3)cc2c1` (single isomer, unassigned) [Example 58, (*R)—N-(5-(1-methyl-4-((2-methyl-7-oxa-2-azaspiro[3.5]nonan-1-yl)methoxy)-1H-pyrazol-5-yl)pyrazolo[1,5-a]pyridin-2-yl)cyclopropanecarboxamide] the value was 57.8 nM; for `Cc1cc(Nc2cc3cc(-c4c(CO[C@@H]5CN(C)C[C@H]5C)cnn4C)ccn3n2)nc(C)n1` (relative stereo) [Example 366, Trans-*S, *R—N-(2,6-dimethylpyrimidin-4-yl)-5-[4-[(1,4-dimethylpyrrolidin-3-yl)oxymethyl]-2-methyl-pyrazol-3-yl]pyrazolo[1,5-a]pyridin-2-amine], 1.6 nM.
For `CCn1ncc(OC[C@@H]2CCNC2)c1-c1ccn2nc(NC(=O)C3CC3)cc2c1` [Example 312, N-[5-[2-ethyl-4-[[(3R)-pyrrolidin-3-yl]methoxy]pyrazol-3-yl]pyrazolo[1,5-a]pyridin-2-yl]cyclopropanecarboxamide] the value was 44.3 nM.
With `Cc1cc(Nc2cc3cc(-c4c(OC[C@H]5CCN5C)cnn4C)ccn3n2)nc(C(F)(F)F)n1` [Example 63, 5-[2-methyl-4-[[(2R)-1-methylazetidin-2-yl]methoxy]pyrazol-3-yl]-N-[6-methyl-2-(trifluoromethyl)pyrimidin-4-yl]pyrazolo[1,5-a]pyridin-2-amine], the IC50 came out at 1.1 nM.
`CN1CC[C@@H]1COc1cnn(C)c1-c1ccn2nc(NC(=O)[C@H]3C[C@@H]3c3ccccc3)cc2c1` (racemic) [Example 71, trans-N-[5-[2-methyl-4-[((2R)-1-methylazetidin-2-yl)methoxy]pyrazol-3-yl]pyrazolo[1,5-a]pyridin-2-yl]-2-phenyl-cyclopropanecarboxamide] showed an IC50 of 22.3 nM.
`Cn1ncc(OC[C@H]2CCN2CC2CC2)c1-c1ccn2nc(NC(=O)C3CC3)cc2c1` [Example 247, N-[5-[4-[[(2R)-1-(cyclopropylmethyl)azetidin-2-yl]methoxy]-2-methyl-pyrazol-3-yl]pyrazolo[1,5-a]pyridin-2-yl]cyclopropanecarboxamide] gave an IC50 of 2.7 nM.
Consider `Cc1ncc(Nc2cc3cc(-c4c(OC[C@@H]5CCN5C)cnn4C)ccn3n2)nc1C` [Example 138, N-(5,6-dimethylpyrazin-2-yl)-5-[2-methyl-4-[[(2S)-1-methylazetidin-2-yl]methoxy]pyrazol-3-yl]pyrazolo[1,5-a]pyridin-2-amine], for which the IC50 came to 40.3 nM.
In turn, `Cc1cc(Nc2cc3cc(-c4c(O[C@@H]5CN[C@H](C(F)F)C5)noc4C)ccn3n2)nc(C)n1` [Example 327, 5-[3-[(3S,5S)-5-(difluoromethyl)pyrrolidin-3-yl]oxy-5-methyl-isoxazol-4-yl]-N-(2,6-dimethylpyrimidin-4-yl)pyrazolo[1,5-a]pyridin-2-amine] gave an IC50 of 42.8 nM.
For `COCCNC(=O)c1cnc(Nc2cc3cc(-c4c(OC[C@H]5CCN5C)cnn4C)ccn3n2)cn1` [Example 115, N-(2-methoxyethyl)-5-[[5-[2-methyl-4-[[(2R)-1-methylazetidin-2-yl]methoxy]pyrazol-3-yl]pyrazolo[1,5-a]pyridin-2-yl]amino]pyrazine-2-carboxamide] the value was 9 nM; for `CCc1cc(Nc2cc3cc(-c4c(OC[C@H]5CCN5C)cnn4C)ccn3n2)nc(C)n1` [Example 145, N-(6-ethyl-2-methyl-pyrimidin-4-yl)-5-[2-methyl-4-[[(2R)-1-methylazetidin-2-yl]methoxy]pyrazol-3-yl]pyrazolo[1,5-a]pyridin-2-amine], less than 0.847 nM; for `CO[C@@H]1CN(C)C[C@@H]1Oc1cnn(C)c1-c1ccn2nc(NC(=O)C3CC3)cc2c1` (racemic) [Example 409, (rac-cis)-N-[5-[4-(4-methoxy-1-methyl-pyrrolidin-3-yl)oxy-2-methyl-pyrazol-3-yl]pyrazolo[1,5-a]pyridin-2-yl]cyclopropanecarboxamide], 170 nM.
The compound `Cn1ncc(CO[C@@H]2CNC[C@@H]2F)c1-c1ccn2nc(NC(=O)C3CC3)cc2c1` [Example 188, N-[5-[4-[[(3R,4S)-4-fluoropyrrolidin-3-yl]oxymethyl]-2-methyl-pyrazol-3-yl]pyrazolo[1,5-a]pyridin-2-yl]cyclopropanecarboxamide] came in with an IC50 of 7.7 nM.
For `Cc1snc(O[C@H]2CCNC2)c1-c1ccn2nc(NC(=O)C3CC3)cc2c1` [Example 330, N-[5-[5-methyl-3-[(3S)-pyrrolidin-3-yl]oxy-isothiazol-4-yl]pyrazolo[1,5-a]pyridin-2-yl]cyclopropanecarboxamide] the value was 35.2 nM; for `C[C@@H]1CN(C)C[C@@H]1OCc1cnn(C)c1-c1ccn2nc(NC(=O)C3CC3)cc2c1` (single isomer, unassigned) [Example 197, (3*R, 4*R)—N-[5-[4-[(1,4-dimethylpyrrolidin-3-yl)oxymethyl]-2-methyl-pyrazol-3-yl]pyrazolo[1,5-a]pyridin-2-yl]cyclopropanecarboxamide], 28.1 nM; for `CCN1CCC[C@H]1COc1cnn(C)c1-c1ccn2nc(NC(=O)C3CC3)cc2c1` [Example 420, N-[5-[4-[[(2S)-1-ethylpyrrolidin-2-yl]methoxy]-2-methyl-pyrazol-3-yl]pyrazolo[1,5-a]pyridin-2-yl]cyclopropanecarboxamide], 171 nM.
The figure for `Cc1cc(Nc2cc3cc(-c4c(OC[C@@H]5CC6(CCC6)CO5)cnn4C)ccn3n2)nc(C)n1` (single isomer, unassigned) [Example 358, *S—N-(2,6-dimethylpyrimidin-4-yl)-5-[2-methyl-4-(7-oxaspiro[3.4]octan-6-ylmethoxy)pyrazol-3-yl]pyrazolo[1,5-a]pyridin-2-amine] is 53.5 nM.
The figure for `CCN1CC[C@@H]1COc1cnn(C(F)F)c1-c1ccn2nc(Nc3cc(C)nc(C)n3)cc2c1` [Example 479, 5-[2-(difluoromethyl)-4-[[(2R)-1-ethylazetidin-2-yl]methoxy]pyrazol-3-yl]-N-(2,6-dimethylpyrimidin-4-yl)pyrazolo[1,5-a]pyridin-2-amine] is 1.1 nM.
Consider `CC(=O)N1CC[C@@H]1COc1cnn(C)c1-c1ccn2nc(NC(=O)C3CC3)cc2c1` [Example 56, N-[5-[4-[[(2R)-1-acetylazetidin-2-yl]methoxy]-2-methyl-pyrazol-3-yl]pyrazolo[1,5-a]pyridin-2-yl]cyclopropanecarboxamide], for which the IC50 came out at 2500 nM.
For `CNC1(COc2cnn(C)c2-c2ccn3nc(NC(=O)C4CC4)cc3c2)CC1` [Example 434, N-[5-[2-methyl-4-[[1-(methylamino)cyclopropyl]methoxy]pyrazol-3-yl]pyrazolo[1,5-a]pyridin-2-yl]cyclopropanecarboxamide] the value was 101 nM; for `CN1CC[C@@H]1COc1cnn(C)c1-c1ccn2nc(NC(=O)[C@@H]3C[C@H]3c3ccccc3)cc2c1` (single isomer, unassigned) [Example 157, (1*R,2*R)—N-[5-[2-methyl-4-[((R)1-methylazetidin-2-yl)methoxy]pyrazol-3-yl]pyrazolo[1,5-a]pyridin-2-yl]-2-phenyl-cyclopropanecarboxamide], 11.1 nM.
For `[2H]C([2H])([2H])N1CC[C@H](Oc2noc(C)c2-c2ccn3nc(NC(=O)C4CC4)cc3c2)C1` [Example 384, N-[5-[5-methyl-3-[(3S)-1-(trideuteriomethyl)pyrrolidin-3-yl]oxy-isoxazol-4-yl]pyrazolo[1,5-a]pyridin-2-yl]cyclopropanecarboxamide], the IC50 came out at 161 nM.
`Cn1ncc(OC[C@H]2CCN2Cc2ccccc2)c1-c1ccn2nc(NC(=O)C3CC3)cc2c1` [Example 429, N-[5-[4-[[(2R)-1-benzylazetidin-2-yl]methoxy]-2-methyl-pyrazol-3-yl]pyrazolo[1,5-a]pyridin-2-yl]cyclopropanecarboxamide]: the IC50 was 99.9 nM.
For `CN1CC[C@H](Oc2cnn(C)c2-c2ccn3nc(Nc4cccnn4)cc3c2)C1` [Example 449, 5-[2-methyl-4-[(3S)-1-methylpyrrolidin-3-yl]oxy-pyrazol-3-yl]-N-pyridazin-3-yl-pyrazolo[1,5-a]pyridin-2-amine] the value was 89.5 nM.
